One experiment has as its system metastatic NSCLC. The experiment is described as follows: GEN1046 in combination with docetaxel in metastatic NSCLC subjects, efficacy (RECIST v1.1). It is filed as in vivo, human. The following applies: six subjects dosed with GEN1046 and 75 mg/m^2 Docetaxel. The procedure: Docetaxel was administered at a dose of 55 mg/m^2 or 75 mg/m^2 depending on the number of prior Dose Limiting Toxicities observed. The maximum tested dose of docetaxel was be 75 mg/m^2.
The following inclusion criteria applied to the combination arm (NSCLC): GEN1046 in combination with docetaxel: • NSCLC subjects of any histology may be enrolled. Subjects with a histological or cytological diagnosis of non-squamous NSCLC must not have an EGFR-sensitizing mutation and/or ALK translocation/ROS1 rearrangement. EGFR sensitizing mutations are those mutations that are amenable to treatment with an approved TKI. Documentation of EGFR and ALK status should be available per local assessment.
In one of the six patients the first post-baseline scan was indicative of response according to RECIST Criteria v1.1.

Another experiment deals with interferon-gamma (IFN-γ). The experiment is described as follows: Serum interferon-γ levels in cancer patients after GEN1046 (MSD multiplex immunoassay). It is filed as in vivo, human. The procedure: Serum levels of IFN-γ were measured by a Meso Scale Discovery (MSD) multiplex immune-assay (cat. no. K15209G) following the manufacturer's instructions.
For experiment [1], the system named is effector memory CD8 T cells (CD8+CD45RA−CCR7− T cells). The experiment is described as follows: Proliferating (Ki67+) effector memory CD8 T cells in peripheral blood of patients (flow cytometry). The following applies: human, in vivo. As to the method:
100 μL of whole blood was added to fluorochrome-conjugated monoclonal antibodies that bind specifically to cell surface antigens: CD45RA-FITC (clone LEU-18, BD Biosciences cat. no. 335039), CCR7-BV510 (clone 3D12, BD Biosciences, cat. no. 563449), CD8-PerCP-Cy5.5 (clone RPA-T8, BD Biosciences, cat. no. 560662). After incubation on ice, the stained samples were treated with FACS Lysing Solution (BD Biosciences, Catalog No 349202) to lyse erythrocytes. Excess antibody and cell debris were removed by washing with Stain Buffer (BD Biosciences, cat. no. 554656). Following lyse/wash, cells were fixed and permeabilized by incubation with Permeabilizing Solution 2 buffer (BD Biosciences, cat. no. 340973). Next, cells were washed and resuspended in Stain Buffer and incubated on ice with antibody to Ki67 (BV421 B56, BD Biosciences, cat. no. 562899) to detect proliferating cells. After incubation, excess antibody was removed by washing with Stain Buffer. Cells were resuspended in Stain Buffer and acquired on a BD FACSCanto™ II flow cytometer (Becton Dickinson) within 1 hour of staining.
(In general: A flow cytometer gives signals particle by particle.)

For the substance “GEN1046: PD-L1×4-1BB bispecific antibody: PD-L1-547-FEAL combined with CD137-009-HC7LC2-FEAR (SEQ ID NOs: 1, 5, 21, 19; 8, 12, 22, 20)”, the “Patients whose first post-baseline scan was indicative of response (RECIST v1.1)” value in the experiment on metastatic NSCLC is recorded as “one”. The “Dose levels with higher magnitude and consistent modulation of peripheral pharmacodynamic endpoints” value in the experiment on interferon-gamma (IFN-γ) (IFNγ and proliferating Ki67+ effector memory CD8+ T cells) is reported as not below 200 mg. The “Dose levels with maximal increases of IFN-γ” value with interferon-gamma (IFN-γ) (first treatment cycle) was 50 mg and 80 mg. Also, the “Increase of IFN-γ levels” value with interferon-gamma (IFN-γ) (first treatment cycle, across all dose levels tested) is “more than 2 fold”. Further, in experiment [1], the “Cohort with maximal and more consistent modulation of proliferating CD8+ effector memory T cells” value is 80 mg.

Values taken from patent US20240109972A1, “ANTIBODY AND TAXANE COMBINATION THERAPY” (Genmab A/S, priority 2020, published 2024).
